Experimental findings from ChEMBL document CHEMBL5370553, “Small-molecule LRRK2 inhibitors for PD therapy: Current achievements and future perspectives” (Eur J Med Chem, 2023) are described below.

SMILES strings stand for the structures. A value given as a limit tells only on which side of the number the result lay.

A short description of data set [1]: Half life in CD-1 mouse at 1 mg/kg, iv. The data set is classed as ADME, organism-based. Conditions: in vivo.
The nature of data set [2]: Oral bioavailability in CD-1 mouse at 5 mg/kg. The data set is classed as ADME, organism-based. Conditions: in vivo.
In data set [3] the target is T1, Leucine-rich repeat serine/threonine-protein kinase 2 (Homo sapiens, UniProt Q5S007, G2019S). Nature of the data set: Inhibition of human LRRK2 G2019S mutant measured after 60 mins by TR-FRET assay. (In general: Time-resolved FRET reads energy transfer from a long-lived donor to a nearby acceptor.)
The target in data set [4] is T2, Leucine-rich repeat serine/threonine-protein kinase 2 (Homo sapiens, UniProt Q5S007). Nature of the data set: Inhibition of human LRRK2 measured after 60 mins by TR-FRET assay.
Data set [5] addresses T1, Leucine-rich repeat serine/threonine-protein kinase 2. The experiment in a line: Inhibition of GST-tagged human LRRK2 G2019S mutant expressed in Insect cell using ERM as substrate measured after 1 hrs.
Data set [6] has as its target T2, Leucine-rich repeat serine/threonine-protein kinase 2. The experiment in a line: Inhibition of GST-tagged recombinant human LRRK2 expressed in Insect cell using ERM as substrate measured after 1 hrs.
The target in data set [7] is T1, Leucine-rich repeat serine/threonine-protein kinase 2. The experiment in a line: Inhibition of LRRK2 G2019S mutant (unknown origin).
The target of data set [8] is T2, Leucine-rich repeat serine/threonine-protein kinase 2. Nature of the data set: Inhibition of LRRK2 (unknown origin).
The target is the same in data set [9]. The experiment in a line: Inhibition of GST20-tagged human LRRK2 using ERM as substrate measured after 90 mins in presence of ATP by lanthascreen TR-FRET assay.
Data set [10] shares this target. Nature of the data set: Inhibition of GST20-tagged human LRRK2 by cell based assay.
Data set [11] has as its target Protein cereblon/Leucine-rich repeat serine/threonine-protein kinase 2 (Mus musculus, UniProt Q5S006+Q8C7D2). Nature of the data set: PROTAC activity at CRBN/LRRK2 in mouse RAW264.7 cells assessed as reduction of protein degradation measured after 24 hrs by Western blot analysis. The data set is classed as cell-based. (In general: Immunoblotting shows a protein as a band on a membrane.)

For data set [12], the target named is T3, von Hippel-Lindau disease tumor suppressor/Leucine-rich repeat serine/threonine-protein kinase 2 (Homo sapiens) (UniProt Q5S007+P40337). The experiment in a line: PROTAC activity at VHL/LRRK2 in human PBMC cells assessed as induction of degradation by measuring half life measured after 24 hrs by Western blot analysis. The data set is classed as cell-based.

For data set [13], the target named is T4, von Hippel-Lindau disease tumor suppressor/Leucine-rich repeat serine/threonine-protein kinase 2 (Homo sapiens, UniProt P40337+Q5S007). Nature of the data set: PROTAC activity at VHL/LRRK2 in human PBMC cells assessed as reduction of protein degradation measured after 4 hrs by Western blot. The data set is classed as cell-based.
Data set [14] addresses T5, von Hippel-Lindau disease tumor suppressor/Leucine-rich repeat serine/threonine-protein kinase 2 (Homo sapiens, UniProt P40337+Q5S007, G2019S). Nature of the data set: PROTAC activity at VHL/LRRK2 G2019S mutant in human PBMC cells assessed as reduction of protein degradation measured after 24 hrs by Western blot. The data set is classed as cell-based.
Data set [15] deals with von Hippel-Lindau disease tumor suppressor/Leucine-rich repeat serine/threonine-protein kinase 2 (Homo sapiens), Q5S007+P40337 [G2019S]. The experiment in a line: PROTAC activity at VHL/LRRK2 G2019S mutant in human PBMC cells assessed as induction of degradation by measuring half life measured after 24 hrs by Western blot analysis. Format: cell-based.
The test system is the same in data set [16]. Nature of the data set: PROTAC activity at VHL/LRRK2 G2019S mutant in human PBMC cells assessed as reduction of protein degradation at 300 nM measured after 4 hrs by Western blot analysis relative to control. Format: cell-based.
Data set [17] addresses T4, von Hippel-Lindau disease tumor suppressor/Leucine-rich repeat serine/threonine-protein kinase 2. The experiment in a line: PROTAC activity at VHL/LRRK2 in human PBMC cells assessed as reduction of protein degradation measured after 24 hrs by Western blot. Format: cell-based.
The target of data set [18] is T3, von Hippel-Lindau disease tumor suppressor/Leucine-rich repeat serine/threonine-protein kinase 2 (Homo sapiens). The experiment in a line: PROTAC activity at VHL/LRRK2 in human PBMC cells assessed as reduction of protein degradation at 300 nM measured after 4 hrs by Western blot analysis relative to control. Format: cell-based.
Data set [19] concerns the target T5, von Hippel-Lindau disease tumor suppressor/Leucine-rich repeat serine/threonine-protein kinase 2. The experiment in a line: PROTAC activity at VHL/LRRK2 G2019S mutant in human PBMC cells assessed as reduction of protein degradation measured after 4 hrs by Western blot. The data set is classed as cell-based.
A short description of data set [20]: Oral bioavailability in mouse at 30 mg/kg measured upto 8 hrs by LC-MS/MS analysis. Format: ADME, organism-based. Conditions: in vivo.
Data set [21] is described as follows: Mean residence time in rat by LC-MS/MS analysis. Format: ADME. Conditions: in vivo.
Data set [22] can be described thus: Oral bioavailability in rat by LC-MS/MS analysis. Format: ADME, organism-based. Conditions: in vivo.
Data set [23] can be described thus: Mean residence time in Beagle dog by LC-MS/MS analysis. The data set is classed as ADME, Canis lupus familiaris. Conditions: in vivo.
Data set [24] can be described thus: Oral bioavailability in Beagle dog by LC-MS/MS analysis. The data set is classed as ADME, organism-based, Canis lupus familiaris. Conditions: in vivo.
For data set [25], the target named is Dual specificity protein kinase CLK2 (Homo sapiens, UniProt P49760). The experiment in a line: Inhibition of CLK2 (unknown origin) by fluorescence based assay.
Data set [26] concerns the target T2, Leucine-rich repeat serine/threonine-protein kinase 2. The experiment in a line: Inhibition of human full length LRRK2 using RLGRDKYKTLRQIRQ peptide as substrate by mass spectrometry analysis.
The subject of data set [27] is von Hippel-Lindau disease tumor suppressor/Leucine-rich repeat serine/threonine-protein kinase 2 (Homo sapiens), Q5S007+P40337 [G2019S]. The experiment in a line: PROTAC activity at VHL/LRRK2 G2019S mutant in human PBMC cells assessed as reduction of protein degradation measured after 24 hrs by Western blot analysis relative to control. The data set is classed as cell-based.

The target in data set [28] is T3, von Hippel-Lindau disease tumor suppressor/Leucine-rich repeat serine/threonine-protein kinase 2 (Homo sapiens). Nature of the data set: PROTAC activity at VHL/LRRK2 in human PBMC cells assessed as reduction of protein degradation measured after 24 hrs by Western blot analysis relative to control. Format: cell-based.
The target in data set [29] is T1, Leucine-rich repeat serine/threonine-protein kinase 2. The experiment in a line: Inhibition of recombinant N-terminal GST-tagged human G2019S LRRK2 expressed in Sf9 insect cells using H-RLGAWRFTTLRRARQGNTKQR-OH peptide as substrate.
The target in data set [30] is T2, Leucine-rich repeat serine/threonine-protein kinase 2. The experiment in a line: Inhibition of recombinant N-terminal GST-tagged human LRRK2 expressed in Sf9 insect cells using H-RLGAWRFTTLRRARQGNTKQR-OH peptide as substrate.
Data set [31] can be described thus: Oral bioavailability in rat. The data set is classed as ADME, organism-based. Conditions: in vivo.
Data set [32] is described as follows: Half life in rat. The data set is classed as ADME. Conditions: in vivo.
Data set [33] can be described thus: Half life in mouse. Format: ADME, organism-based. Conditions: in vivo.
Data set [34] deals with Leucine-rich repeat serine/threonine-protein kinase 2 (Mus musculus, UniProt Q5S006). Nature of the data set: Inhibition of mouse LRRK2.
The target in data set [35] is T2, Leucine-rich repeat serine/threonine-protein kinase 2. Nature of the data set: Inhibition of human LRRK2 using LRRKtide as substrate measured after 1 hrs by caliper mobility shift assay.
Data set [36] concerns the target T1, Leucine-rich repeat serine/threonine-protein kinase 2. Nature of the data set: Inhibition of human LRRK2 G2019S mutant using LRRKtide as substrate measured after 1 hrs by caliper mobility shift assay.

T4 sequence (Q5S007 whole entry): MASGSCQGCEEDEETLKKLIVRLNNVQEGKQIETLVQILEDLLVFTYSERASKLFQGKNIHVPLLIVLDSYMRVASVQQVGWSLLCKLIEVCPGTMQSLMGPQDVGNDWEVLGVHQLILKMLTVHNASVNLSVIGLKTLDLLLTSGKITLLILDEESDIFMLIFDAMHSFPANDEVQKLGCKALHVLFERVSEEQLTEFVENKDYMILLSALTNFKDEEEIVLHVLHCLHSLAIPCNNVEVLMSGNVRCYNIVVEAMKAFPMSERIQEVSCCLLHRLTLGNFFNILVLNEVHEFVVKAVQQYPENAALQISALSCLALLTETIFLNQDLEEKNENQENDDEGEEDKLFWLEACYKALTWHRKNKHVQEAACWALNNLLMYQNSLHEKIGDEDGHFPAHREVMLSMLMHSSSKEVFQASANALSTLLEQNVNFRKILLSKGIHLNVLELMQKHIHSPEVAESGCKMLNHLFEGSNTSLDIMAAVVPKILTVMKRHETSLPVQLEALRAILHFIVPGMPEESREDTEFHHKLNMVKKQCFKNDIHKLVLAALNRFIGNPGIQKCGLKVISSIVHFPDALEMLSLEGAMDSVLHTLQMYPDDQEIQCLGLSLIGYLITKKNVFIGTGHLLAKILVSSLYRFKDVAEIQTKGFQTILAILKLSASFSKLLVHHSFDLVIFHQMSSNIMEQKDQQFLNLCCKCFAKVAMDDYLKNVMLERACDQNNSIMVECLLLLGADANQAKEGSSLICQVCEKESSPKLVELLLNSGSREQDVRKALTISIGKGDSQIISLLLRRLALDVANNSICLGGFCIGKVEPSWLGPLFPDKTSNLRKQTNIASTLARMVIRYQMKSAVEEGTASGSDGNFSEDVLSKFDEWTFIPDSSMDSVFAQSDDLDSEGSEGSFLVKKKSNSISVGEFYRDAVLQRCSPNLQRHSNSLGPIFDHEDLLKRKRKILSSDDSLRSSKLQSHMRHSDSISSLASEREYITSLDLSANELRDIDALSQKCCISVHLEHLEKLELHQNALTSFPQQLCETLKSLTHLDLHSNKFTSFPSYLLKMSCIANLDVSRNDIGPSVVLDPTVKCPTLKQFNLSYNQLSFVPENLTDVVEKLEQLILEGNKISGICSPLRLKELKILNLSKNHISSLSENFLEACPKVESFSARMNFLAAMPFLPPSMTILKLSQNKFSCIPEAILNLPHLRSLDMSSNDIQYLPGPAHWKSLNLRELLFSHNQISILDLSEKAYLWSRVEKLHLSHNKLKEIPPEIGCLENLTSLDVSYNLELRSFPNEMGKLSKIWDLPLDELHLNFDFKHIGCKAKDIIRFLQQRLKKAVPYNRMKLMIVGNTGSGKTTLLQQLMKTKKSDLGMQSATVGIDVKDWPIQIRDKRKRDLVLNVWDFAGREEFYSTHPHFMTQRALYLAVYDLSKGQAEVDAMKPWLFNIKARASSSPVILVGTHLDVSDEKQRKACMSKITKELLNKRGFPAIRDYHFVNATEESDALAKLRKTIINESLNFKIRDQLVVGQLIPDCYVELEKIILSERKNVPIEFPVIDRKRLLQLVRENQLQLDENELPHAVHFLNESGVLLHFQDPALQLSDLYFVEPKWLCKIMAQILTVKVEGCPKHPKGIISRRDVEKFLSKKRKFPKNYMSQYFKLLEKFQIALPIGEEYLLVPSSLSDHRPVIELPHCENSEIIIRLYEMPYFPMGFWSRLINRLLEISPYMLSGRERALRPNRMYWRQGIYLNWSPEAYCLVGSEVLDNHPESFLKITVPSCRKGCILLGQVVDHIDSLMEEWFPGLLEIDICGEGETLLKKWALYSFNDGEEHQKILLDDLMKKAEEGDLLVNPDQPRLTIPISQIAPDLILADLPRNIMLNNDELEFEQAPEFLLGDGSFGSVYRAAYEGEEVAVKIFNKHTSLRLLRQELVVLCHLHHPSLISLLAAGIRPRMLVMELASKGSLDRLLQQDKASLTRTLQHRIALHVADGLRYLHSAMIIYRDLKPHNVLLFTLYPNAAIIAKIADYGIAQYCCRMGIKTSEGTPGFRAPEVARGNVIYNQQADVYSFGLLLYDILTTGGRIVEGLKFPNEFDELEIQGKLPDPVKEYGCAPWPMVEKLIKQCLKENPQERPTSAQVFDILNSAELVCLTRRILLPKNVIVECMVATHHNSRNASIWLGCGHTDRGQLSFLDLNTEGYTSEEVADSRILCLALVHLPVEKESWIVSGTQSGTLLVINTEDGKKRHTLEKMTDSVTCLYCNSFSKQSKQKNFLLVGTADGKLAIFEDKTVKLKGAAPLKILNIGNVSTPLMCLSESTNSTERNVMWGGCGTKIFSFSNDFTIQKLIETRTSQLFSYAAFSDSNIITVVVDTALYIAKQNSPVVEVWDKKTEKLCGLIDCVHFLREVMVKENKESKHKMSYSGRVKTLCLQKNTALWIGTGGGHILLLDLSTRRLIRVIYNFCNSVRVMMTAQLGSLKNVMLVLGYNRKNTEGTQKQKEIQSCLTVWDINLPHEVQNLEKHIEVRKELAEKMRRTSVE
T4 sequence (P40337 whole entry): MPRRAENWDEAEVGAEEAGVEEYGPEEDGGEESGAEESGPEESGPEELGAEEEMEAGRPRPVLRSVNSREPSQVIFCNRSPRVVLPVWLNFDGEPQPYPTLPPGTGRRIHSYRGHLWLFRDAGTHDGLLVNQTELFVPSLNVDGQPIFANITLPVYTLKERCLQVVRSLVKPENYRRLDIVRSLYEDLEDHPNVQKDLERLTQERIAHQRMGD
T2 sequence (Q5S007 whole entry): as the sequence (Q5S007 whole entry) above
T3 sequence (P40337 whole entry, looked up): as the sequence (P40337 whole entry) above
T3 sequence (Q5S007 whole entry, looked up): as the sequence (Q5S007 whole entry) above
T5 sequence (P40337 whole entry, stated change not applied): as the sequence (P40337 whole entry) above
T5 sequence (Q5S007 whole entry G2019S, stated change not applied): as the sequence (Q5S007 whole entry) above, with G2019S counted along it
T1 sequence (Q5S007 whole entry G2019S): as the sequence (Q5S007 whole entry) above, with G2019S counted along it
Sequence of Dual specificity protein kinase CLK2 (P49760 whole entry): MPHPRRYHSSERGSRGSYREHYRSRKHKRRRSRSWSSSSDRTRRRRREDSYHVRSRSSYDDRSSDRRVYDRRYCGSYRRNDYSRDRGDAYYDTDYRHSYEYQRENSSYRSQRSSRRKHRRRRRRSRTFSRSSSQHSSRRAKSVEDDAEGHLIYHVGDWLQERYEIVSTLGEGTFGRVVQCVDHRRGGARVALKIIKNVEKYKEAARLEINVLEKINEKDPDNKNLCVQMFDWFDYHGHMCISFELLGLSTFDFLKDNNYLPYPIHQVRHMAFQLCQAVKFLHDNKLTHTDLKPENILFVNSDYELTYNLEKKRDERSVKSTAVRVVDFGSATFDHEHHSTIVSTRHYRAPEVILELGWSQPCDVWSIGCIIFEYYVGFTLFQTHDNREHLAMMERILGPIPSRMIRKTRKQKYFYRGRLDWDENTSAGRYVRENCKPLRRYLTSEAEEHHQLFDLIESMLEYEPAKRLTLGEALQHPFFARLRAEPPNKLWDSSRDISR

For the molecule `COc1cc(N2CCOCC2)ccc1Nc1ncc(F)c(Nc2ccccc2NS(C)(=O)=O)n1`, the half-life in data set [1] was 1 h. Besides, the bioavailability in [2] came to 133%. The results for the IC50 in [3] and in data set [4] were 6.87 nM and 4.76 nM, respectively.

Consider `Cn1cc(-c2c[nH]c3ncnc(N4CCOCC4)c23)cc1C#N`, for which the IC50 was found to be 6.37 nM in [5] and 13 nM in data set [6].

With `C=CC(=O)Nc1cccc(Oc2nc(Nc3ccc(N4CCN(C)CC4)c(F)c3)nc3[nH]ccc23)c1` [ABIVERTINIB], the IC50 in [7] was 410 nM; in data set [8], 177 nM.

Consider `Cn1cc(-c2cccc(C(=O)Nc3cc(N4CC[C@@H](C(C)(C)O)C4)cnc3C(F)(F)F)n2)cn1`, for which the IC50 in [9] stood at 17 nM; in data set [10] it was 21 nM.

Turning to `CCNc1nc(Nc2cc(F)c(C(=O)NCCCCNc3cccc4c3C(=O)N(C3CCC(=O)NC3=O)C4=O)cc2OC)ncc1C(F)(F)F` (stereo not given), in data set [11], the IC50 came out at 14.7 nM.

With `CNc1nc(Nc2ccc(C(=O)N3CCN(C[C@H]4CC[C@H](CSC(C)(C)[C@H](NC(=O)C5(F)CC5)C(=O)N5C[C@H](O)C[C@H]5C(=O)NCc5ccc(-c6scnc6C)cc5)CC4)CC3)cc2OC)ncc1Cl`, the T1/2 in data set [12] amounted to 1.2 h; in data set [15], 0.6 h. The EC50 came out at 32 nM in data set [13] and 14 nM in data set [19]. Besides, the values for the IC50 in [14] and in data set [17] were 24.3 nM and 12.4 nM, respectively. The Emax in [16] worked out at 81%; in data set [18], 82%. Moreover, the bioavailability in [20] was found to be 15%.

Take `Cn1cc(-c2nc(C(=O)Nc3cnn(C4CCC4)c3)cs2)cn1`: the IC50 in data set [9] turned out to be 14 nM; in [10] it was 271 nM.

Consider `Cn1cc(-c2cccc(C(=O)Nc3cc(N4CCC(C(C)(C)O)C4)ncc3C(F)(F)F)n2)cn1` (stereo not given), for which the MRT in data set [21] stood at 5.2 h; in data set [23], 3.6 h. Besides, the bioavailability in data set [22] turned out to be 16%; in data set [24], 43%. For the same molecule, the IC50 in data set [25] turned out to be 63 nM; in [9] it was 1 nM; in [10], 2.5 nM.

Consider `COc1cc(N2CCOCC2)ccc1Nc1ncc(Cl)c(Nc2ccccc2NS(C)(=O)=O)n1`, for which the IC50 was 1.85 nM in data set [3] and 1.28 nM in data set [4].

`Cc1c2c(nn1C1CCOCC1)OCCCNc1nc(ncc1Cl)N2` showed an IC50 in data set [26] of at most 100 nM.

With `CNc1nc(Nc2ccc(C(=O)N3CCN(CCOCCOCCSC(C)(C)[C@H](NC(=O)C4(F)CC4)C(=O)N4C[C@H](O)C[C@H]4C(=O)NCc4ccc(-c5scnc5C)cc4)CC3)cc2OC)ncc1Cl`, the T1/2 in data set [12] was 5.1 h; in [15], 1.4 h. Further, the Emax in [27] stood at 58%; in [28] it was 51%.

Take `CNc1nc(Nc2ccc(C(=O)N3CCN(C[C@H]4CC[C@@H](CSC(C)(C)[C@H](NC(=O)C5(F)CC5)C(=O)N5C[C@H](O)C[C@H]5C(=O)NCc5ccc(-c6scnc6C)cc5)CC4)CC3)cc2OC)ncc1Cl`: the T1/2 in data set [12] was determined as 2.7 h; in data set [15], 1.4 h. Besides, the EC50 in data set [13] is 32 nM; in data set [19] it was 7 nM. The Emax came to 90% in data set [16] and 59% in data set [18].

Regarding `CCC(Sc1ccc2nnc(-c3cccs3)n2n1)C(=O)N1CCCCC1` (stereo not given), the IC50 in data set [29] was 75 nM; in data set [30], 146 nM.

As for `CCNc1nc(Nc2cc(F)c(C(=O)N3CCOCC3)cc2OC)ncc1C(F)(F)F`, the concentration for half-maximal inhibition (IC50) in [7] was 1 nM. The bioavailability in data set [31] was 40%. The same molecule showed a half-life in data set [32] of 3.1 h.

In [33], `COc1cc(C(=O)N2CCC(N3CCN(C)CC3)CC2)ccc1Nc1ncc2c(n1)N(C)c1ccccc1C(=O)N2C` showed a half-life of 4.5 h.

`CCOc1cc(N2CCOCC2)ccc1Nc1ncc(F)c(Nc2ccccc2NS(C)(=O)=O)n1`: the IC50 in [34] was 190 nM.

As to `CC(C)Nc1nc(Nc2ccc(C(=O)NCc3ccccc3)cc2)nc2ccsc12`, the IC50 in data set [7] is 14 nM; in data set [8], 30 nM.

For `CNc1nc(N/N=C/c2cccc3ccccc23)nc(Nc2cccc(C(F)(F)F)c2)n1`, the 50% inhibitory concentration (IC50) came to 424 nM in data set [35] and 378 nM in data set [36].

As to `CC(C)(O)[C@@H]1CCN(c2cnc(C(F)(F)F)c(NC(=O)c3cccc(-c4cnn(CC(F)(F)F)c4)n3)c2)C1`, the IC50 in data set [9] came out at 10 nM; in data set [10] it was 0.7 nM.

What is called half-life is the time needed for the level to fall by half in the phase considered. Low values mean rapid decline, high ones slow decline. What is called IC50 is the concentration that inhibits the measured activity by half. Broadly, the EC50 is the midpoint of the concentration-response curve. One may read the Emax as the greatest response seen or fitted, relative to the assay's reference. In general, MRT refers to a mean duration of stay, worked out from the concentration-time curve.
